PubChem BioAssay AID1648 (Sanford-Burnham Center for Chemical Genomics, 2009)
Activity calls are given as the source filed them. No rule for the calls is given here.

Target: Serine/threonine-protein kinase mTOR (Homo sapiens) (UniProt P42345)
Assay: binders of mTOR FRB domain, biophysical, NMR (AID 1648)
Conditions: NMR binding to FRB domain, chemical shift

Serine/threonine-protein kinase mTOR (Homo sapiens), sequence (P42345 2015-2114): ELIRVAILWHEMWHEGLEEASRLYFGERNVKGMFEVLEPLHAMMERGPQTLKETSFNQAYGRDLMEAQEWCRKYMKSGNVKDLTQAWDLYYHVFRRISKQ

COc1ccc2c(c1)C(NC(C)=O)C(=O)N2C (centres undefined)
Kd: > 4 mM (inactive)

N[C@@H](Cc1ccc(O)c(O)c1)C(=O)O
Kd: > 4 mM (inactive)

CCOC(=O)C1CCNCC1
Kd: > 4 mM (inactive)

Cc1ccc(NC(=O)CC2NCCNC2=O)c(C)c1 (centres undefined)
Kd: > 4 mM (inactive)

NC(=O)C1CCN(C2CC(=O)NC2=O)CC1 (centres undefined)
Kd: > 4 mM (inactive)

CSc1nc2nccc(N)n2n1
Kd: > 4 mM (inactive)

COc1ccc(/C=C2\SC(N)=NC2=O)cc1
Kd: > 4 mM (inactive)

CC(=O)OC[C@@]1(O)C[C@@]23CCC4c5ccoc5CC[C@]4(C)C2CC[C@@H]1C3 (some centres undefined)
Kd: > 4 mM (inactive)

Cc1noc(C)c1C(=O)N1CCc2ccccc2C1
Kd: > 4 mM (inactive)

CCn1ccc(C(=O)Nc2nccs2)n1
Kd: > 4 mM (inactive)

CN(C)c1ccc(NC(=O)CC(C(=O)O)N(C)C)cc1 (centres undefined)
Kd: > 4 mM (inactive)

COc1cc2c(cc1O)CCNC2C (centres undefined)
Kd: > 4 mM (inactive)

Nc1ccccc1-c1nc2ccccc2[nH]1
Kd: > 4 mM (inactive)

O=C(OC[C@H]1O[C@H](OC(=O)c2cc(O)c(O)c(OC(=O)c3cc(O)c(O)c(O)c3)c2)[C@H](OC(=O)c2cc(O)c(O)c(OC(=O)c3cc(O)c(O)c(O)c3)c2)[C@@H](OC(=O)c2cc(O)c(O)c(OC(=O)c3cc(O)c(O)c(O)c3)c2)[C@@H]1OC(=O)c1cc(O)c(O)c(OC(=O)c2cc(O)c(O)c(O)c2)c1)c1cc(O)c(O)c(OC(=O)c2cc(O)c(O)c(O)c2)c1
Kd: > 4 mM (inactive)

COc1cc2c(cc1-c1cc3cc4ccoc4cc3oc1=O)OCO2
Kd: > 4 mM (inactive)

Cc1c(CO)cnn1-c1ccc(F)cc1
Kd: > 4 mM (inactive)

O=C(O)CC12CC3CC(CC(O)(C3)C1)C2
Kd: > 4 mM (inactive)

CON(C)C(=O)Nc1ccc(Cl)cc1
Kd: > 4 mM (inactive)

NCc1nc2ccccc2s1
Kd: > 4 mM (inactive)

CN1CCN(C2CCSC2)CC1 (centres undefined)
Kd: > 4 mM (inactive)

Nc1cccc(S(=O)(=O)N2CCCCC2)c1
Kd: > 4 mM (inactive)

c1ccc2c(c1)nnn2C1CCNCC1
Kd: > 4 mM (inactive)

COc1ncnc(N)c1[N+](=O)[O-]
Kd: > 4 mM (inactive)

O=C(O)C1CCN(c2ccc(C(F)(F)F)cn2)CC1
Kd: > 4 mM (inactive)

O=C(NCC1CCCCC1)c1ccco1
Kd: > 4 mM (inactive)

Clc1ccc(-n2ccnc2)nn1
Kd: > 4 mM (inactive)

Cc1nc(-c2cnccn2)sc1C(=O)O
Kd: > 4 mM (inactive)

CC(=O)Nc1cccc(-c2n[nH]c(=S)n2C)c1
Kd: > 4 mM (inactive)

CN(C)C(=O)C12CCC(C)(C(=O)O1)C2(C)C (centres undefined)
Kd: > 4 mM (inactive)

CC(=O)O[C@H]1CCC2(C)C3=C(CCC2C1(C)C)[C@]1(C)CCC(C(C)CCC=C(C)C)[C@@]1(C)CC3 (some centres undefined)
Kd: > 4 mM (inactive)

CNc1nnc(CSc2nc(C)cc(C)n2)s1
Kd: > 4 mM (inactive)

O=C(O)c1ccc(-c2cnco2)cc1
Kd: > 4 mM (inactive)

CCCCCCCCCCCC[C@H](C(=O)O)[C@@H](C)C(=O)O
Kd: > 4 mM (inactive)

Cc1ccc(CCC(N)=O)o1
Kd: > 4 mM (inactive)

Nc1nc2[nH]c(=O)c(=O)[nH]c2c(=O)[nH]1
Kd: > 4 mM (inactive)

CC1(C)Cc2c(C#N)c(N)n(-c3ccccc3)c(=O)c2CO1
Kd: > 4 mM (inactive)

CS(=O)(=O)Nc1ccccc1C(=O)c1ccccc1
Kd: > 4 mM (inactive)

Cc1oc(-c2ccccc2)nc1CC(=O)O
Kd: > 4 mM (inactive)

C[C@H]1CCCC(=O)CCC/C=C/c2cc(O)cc(O)c2C(=O)O1
Kd: > 4 mM (inactive)

CC1(C)C[C@@H]2C(=O)CC[C@H]3O[C@]3(C)CC[C@H]21
Kd: > 4 mM (inactive)

COc1ccc(/C=C2\NC(=S)N(C)C2=O)cc1O
Kd: > 4 mM (inactive)

Cc1c(C(=O)OC(C)C)[nH]c2c1C(=O)CCC2
Kd: > 4 mM (inactive)

Cc1c(C)[n+]([O-])c(-c2ccc([N+](=O)[O-])cc2)n1O
Kd: > 4 mM (inactive)

O=C(CSc1ccc(Cl)cc1)N1CCOCC1
Kd: > 4 mM (inactive)

CC(=O)NC(=S)Nc1nc2ccccc2n1C(C)=O
Kd: > 4 mM (inactive)

NC(=O)Nc1cccc(C(F)(F)F)c1
Kd: > 4 mM (inactive)

O=C(CSC1=NCCS1)N1CCc2ccccc21
Kd: > 4 mM (inactive)

O=C(O)c1cccc(-n2cccc2)c1
Kd: > 4 mM (inactive)

O=c1[nH]cc(Nc2ccccc2)c(=O)[nH]1
Kd: > 4 mM (inactive)

CC(=O)O[C@@H]1CC2C(C)(C)C(=O)C3OC3[C@]2(C)C2CC[C@@]3(C)[C@H](c4ccoc4)OC(=O)C4OC43[C@@]21C (some centres undefined)
Kd: > 4 mM (inactive)

O=c1oc(-c2ccccc2)nc2c1cnn2-c1ccccc1
Kd: > 4 mM (inactive)

O=C(O)c1ccc2c(c1)OCO2
Kd: > 4 mM (inactive)

COc1cc2c3cc1Oc1cc(ccc1O)C[C@@H]1c4c(cc(OC)c(O)c4Oc4ccc(cc4)C[C@@H]3N(C)CC2)CC[N+]1(C)C
Kd: > 4 mM (inactive)

O=C(O)CCN1CCc2ccccc2C1c1ccncc1 (centres undefined)
Kd: > 4 mM (inactive)

Cc1[nH]ccc2c1[nH]c1cc(=O)ccc12
Kd: > 4 mM (inactive)

COC(=O)Cc1cc(=O)n(-c2nc3ccccc3s2)[nH]1
Kd: > 4 mM (inactive)

NC(=O)CCn1c(=O)oc2ccccc21
Kd: > 4 mM (inactive)

CNC(=O)C1=NCCCc2cc(OC)c(OC)cc21
Kd: > 4 mM (inactive)

ON=c1ccc2nc3ccccc3nc2cc1
Kd: > 4 mM (inactive)
